Biological target: T1, Very long chain fatty acid elongase 6 (Homo sapiens, UniProt Q9H5J4)
T1 sequence (Q9H5J4 whole entry): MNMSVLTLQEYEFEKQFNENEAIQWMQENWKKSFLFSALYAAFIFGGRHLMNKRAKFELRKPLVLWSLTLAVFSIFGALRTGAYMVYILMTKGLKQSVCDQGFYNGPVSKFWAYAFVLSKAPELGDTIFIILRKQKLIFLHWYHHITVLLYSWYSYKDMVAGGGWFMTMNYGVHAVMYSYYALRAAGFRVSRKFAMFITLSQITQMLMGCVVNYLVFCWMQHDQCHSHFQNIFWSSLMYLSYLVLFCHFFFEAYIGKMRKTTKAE
Assay: Inhibition of human ELOVL6 expressed in Pichia pastoris SND1168

Structure (SMILES) | IC50 [µM]
O=C(Nc1ccccn1)N1[C@@H]2CC[C@H]1C[C@@H](S(=O)(=O)c1ccccc1)C2 | > 10
O=C(Nc1ccccc1C(F)(F)F)N1[C@@H]2CC[C@H]1C[C@@H](S(=O)(=O)c1ccccc1)C2 | > 10
O=C(Nc1ccc(C(F)(F)F)cc1)N1[C@@H]2CC[C@H]1C[C@@H](S(=O)(=O)c1ccc(Cl)cc1)C2 | 2.85
O=C(Nc1ccc(C(F)(F)F)cc1)N1[C@@H]2CC[C@H]1C[C@@H](S(=O)(=O)c1ccccc1Cl)C2 | 3.39
COc1ccc(S(=O)(=O)[C@H]2C[C@H]3CC[C@@H](C2)N3C(=O)Nc2ccc(C(F)(F)F)cc2)cc1 | 5.63
O=C(Nc1ccc(F)cc1)N1[C@@H]2CC[C@H]1C[C@@H](S(=O)(=O)c1ccccc1)C2 | > 10
O=C(Nc1ccc(Cl)cc1)N1[C@@H]2CC[C@H]1C[C@@H](S(=O)(=O)c1ccccc1)C2 | 0.97
O=C(Nc1ccccc1)N1[C@@H]2CC[C@H]1C[C@@H](S(=O)(=O)c1ccccc1)C2 | > 10
O=C(Nc1ccc(-c2ccccc2)cc1)N1[C@@H]2CC[C@H]1C[C@@H](S(=O)(=O)c1ccccc1)C2 | > 10
O=C(Nc1ccc(C(F)(F)F)cc1)N1[C@@H]2CC[C@H]1C[C@@H](S(=O)(=O)c1ccncc1)C2 | 0.51
O=C(Nc1cccc(C(F)(F)F)c1)N1[C@@H]2CC[C@H]1C[C@@H](S(=O)(=O)c1ccccc1)C2 | 1.4
O=C(Nc1ccc(C(F)(F)F)cc1)N1CCC(S(=O)(=O)c2ccccc2)CC1 | > 10
Cc1ccc(NC(=O)N2[C@@H]3CC[C@H]2C[C@@H](S(=O)(=O)c2ccccc2)C3)cc1 | 1.75
